Laboratory results reported in patent publication US9790188B2, “Benzimidazole derivatives and uses thereof” (Whitehead Institute for Biomedical Research, priority 2013, dated 2017).
Entries after “also recorded” stand apart in the source; their conditions may differ.

Columns and labels:
[1] = test system: Aβ peptide; experiment: Yeast growth rescue, Aβ peptide proteinopathy model; assay type: cell-based
Description: (§1) (A) Structure of lead compound ABI. (B) Dose-response curves showing the relative rescue of ABI (log2, μM) in five yeast proteinopathy models. Rescue is relative to a positive control compound as determined by growth (OD600). (C) Localization of α-syn-GFP in strains with increasing toxicity: NoTox, InTox, HiTox and HiTox treated with 10 μM ABI. […] (E) (Left panel) Western blot of α-syn-GFP in NoTox, InTox, and HiTox strains with anti-α-syn antibody. (Right panel) Quantitation of western blot (α-syn relative to total protein quantitated from a Coomassie gel and normalized to 100% for HiTo). **: P<0.01; and ***: P<0.001, according to one-way ANOVA and a Tukey's test.
(§2) Yeast strains expressing toxic proteins have been described previously (6, 9, 33, 34) (Table 1). All strains have either single or multiple inserts for galactose-inducible expression. In addition, all stains have either deletions of the Δpdr1::KanMX and Δpdr3::KanMX or Δpdr5::KanMX to reduce efflux of compounds and required compound dosing. Yeast were cultured in complete synthetic media (CSM) and an appropriate dropout (minus HIS or URA) to maintain plasmids if required. […]
(§3) Starting cultures for all dose-response assays were established as described above. […] Plates were then read with a Tecan Saphire plate reader at OD600.

[2] = test system: Cpy; experiment: CPY western blot, ER-to-Golgi trafficking in α-syn yeast; assay type: cell-based; details: α-syn-expressing yeast
Description: CPY western blots were performed using culture conditions as described above. An anti-Cpy antibody (Invitrogen, A6428) was used at 1:5,000. Post-ER:ER ratios were quantitated using an IRDye800 secondary antibody (Li-Cor Odyssey, Rockland Immunochemicals) and scanned with the Li-Cor Odyssey imaging system. Significance was determined using a one-way ANOVA and Tukey's test of significance.

[3] = test system: α-syn; experiment: Western blot of α-syn levels in yeast; assay type: cell-based; details: α-syn-expressing yeast
Description: Protein analysis of α-syn-GFP was performed in NoTox, InTox, and HiTox strains with ABI1 treatment at indicated concentrations. Log phase CSM/2% raffinose cultures were induced with 2% galactose for 5 hours with DMSO or ABI1. Cultures were normalized to cell density and cell pellets prepared for SDS-PAGE. Cell pellets were boiled in SDS-loading dye for 15′, centrifuged, and resolved by 4-12% SDS-PAGE. […] From the same gel, total protein was detected by coomassie staining. Both blots and coomassie-stained gels were scanned using the Li-Cor Odyssey imaging system and quantitated. Values were expressed as α-syn normalized to total protein (FIG. 1E). Significance was determined using a one-way ANOVA with Tukey's test of significance.

[4] = test system: dopaminergic (DA) neurons; experiment: C. elegans model of α-syn toxicity; assay type: in vivo; details: nematodes expressing α-syn and GFP in DA neurons
Description: Drug treatments of the C. elegans α-syn model were performed as previously described (6). Briefly, age-synchronized worms were obtained by treating gravid adults with 2% sodium hyopchlorite and 0.5M NaOH to isolate embryos (36). Variable concentrations of ABI1 or 0.2% DMSO was applied to embryos suspended in M9 buffer (22 mM KH2PO4, […], 85 mM NaCl, 1 mM MgSO4) (time 0), and incubated at 25 C for 24 hours to obtain a synchronized L1 population. Worms were washed three times in distilled water and one additional rinse in M9 buffer. The synchronized L1 worms were plated on regular nematode growth media (NGM) plates seeded with 100 uL of Eschericia coli (OP50). Worms were then transferred every other day to new plates to insure food abundance and eliminate progeny contamination. Worms were then analyzed seven days post-hatching. Analyses were carried out according to the criteria previously described (37). In each case, ˜30-40 animals were scored for the percent of WT animals. Experiments were completed in triplicate and averages calculated. A one-way ANOVA and Tukey's test was used to determine significance.

[5] = test system: FUS/TLS; experiment: Yeast growth rescue, FUS/TLS proteinopathy model; assay type: cell-based
Description: as §1, §2, §3

[6] = test system: aSyn^A53T iPS neurons; experiment: ER protein trafficking (nicastrin, GCase, Endo H) in patient iPS neurons; details: human cortical neurons from iPSCs of a patient carrying α-syn mutations
Description: Trafficking from ER was assessed by probing for nicastrin and GCase with or without Endo H treatment. Data are normalized using corrected/A53T ratios established in FIG. 6 to more faithfully depict the biological significance of the small molecule effects (n=3). […] All data represented as mean±SEM (*: p<0.05; **: p<0.01, two tail t-test compared to control condition).
Trafficking from ER was assessed by probing for nicastrin and GCase with or without Endo H treatment.

[7] = test system: htt72Q; experiment: Yeast growth rescue, htt72Q proteinopathy model; assay type: cell-based
Description: as §1, §2, §3

[8] = test system: Bap2; experiment: Western blot of proteinA-tagged Bap2; assay type: cell-based, yeast; details: Rsp5-dependent
[9] = test system: α-syn; experiment: Yeast growth rescue from α-syn toxicity (dose-response); assay type: cell-based
Description: For galactose-induction experiments, overnight cultures were grown in CSM/2% glucose to saturation and diluted 1:20 into CSM/2% raffinose for ˜2 generations. Cultures were then diluted into CSM/2% galactose at an optimum OD600 for the experiment (see ‘Growth assays’).
Source plates were assembled in 96 well plates using multichannel pipettes to dilute rows in 1.6-fold serial dilutions of CSMGal. […] For α-syn, the final starting OD600 was 0.02. Drug concentration ranges varied depending on efficacy, growth inhibition, and solubility in media. A Tecan EvoFreedom liquid handling robot was then used to transfer culture from 96 to 384 well format with each well being represented four times. Final well volume was 35 μL. Plates were then incubated in humidified containers at 30° C. for either 24 or 40 hours. Plates were then read with a Tecan Saphire plate reader at OD600.
Raw OD600 values were transformed to “Relative Growth” in WT cells or “% Maximum Rescue” in α-syn experiments. In WT cells, the well background was subtracted and all values were then normalized to 100% for the untreated condition. In α-syn rescue experiments, the well background was subtracted and the maximum rescue in the particular experiment was normalized to 100%.

For Cc1cccc(-n2cnc3cc(C(=O)NCc4ccccc4Cl)ccc32)c1 [ABI, N-(2-chlorobenzyl)-1-(m-tolyl)-1H-benzo[d]imidazole-5-carboxamide], the “efficacy against Aβ peptide” value [1] was “not, however, effective”, the “ER-to-Golgi trafficking (Cpy) / forward protein trafficking through the ER” value [2] was “directly ameliorated an ER-Golgi trafficking block” and the α-syn levels [3] was “did not reverse α-syn phenotypes by reducing α-syn levels; also recorded: did not detect changes”. For the same molecule, the “rescue of DA neurons from α-syn toxicity” value [4] was “partial, yet highly significant, rescue”, the “efficacy against FUS/TLS” value [5] was “not, however, effective” and the “ER-to-Golgi protein trafficking defect” value [6] was “ameliorated an ER-to-Golgi protein trafficking defect”. For the same molecule, the “efficacy against htt72Q” value [7] was “not, however, effective”, the “Bap2 levels / degradation” value [8] was “promotes Bap2 degradation” and the melting point was 129 to 131 °C. For the same molecule, the “growth-inhibitory concentration relative to EC50 in rescuing α-syn toxicity” value [9] was “about four-fold” and the “potency and efficacy against α-syn (rescue of growth)” value ([9]; compared with TDP-43 model) was “much greater potency and efficacy”.
